PMC9516332 (Frontiers in Oncology, 2022)
Like-named read-outs stand apart in the source and are kept apart here.

Test system: 134 cancer cell lines
Assay: Cell viability assay (ATPlite, 72 hours), IC50 on cancer cell line panel
[1] = Homo sapiens, A204, read-out: IC50 in cell proliferation assay
[2] = Homo sapiens, Kasumi 1, read-out: IC50 in cell proliferation assay
[3] = Homo sapiens, MDA-MB-453, read-out: IC50 in cell proliferation assay
[4] = Homo sapiens, MOLM-13, read-out: IC50 in cell proliferation assay
[5] = Homo sapiens, MV4-11, read-out: IC50 in cell proliferation assay
[6] = Homo sapiens, SK-N-SH, read-out: IC50 in cell proliferation assay

C=CC(=O)N1CCC[C@@H](n2nc(-c3ccc(Oc4ccccc4)cc3)c3c(N)ncnc32)C1 [ibrutinib]
IC50 (Homo sapiens, 769-P, read-out: IC50 in cell proliferation assay): 0.624 µM
IC50 (Homo sapiens, 786-0, read-out: IC50 in cell proliferation assay): 0.447 µM
IC50 [1]: 29.2 µM
IC50 (Homo sapiens, A498, read-out: IC50 in cell proliferation assay): 10.1 µM
IC50 (Homo sapiens, A-427, read-out: IC50 in cell proliferation assay): 7.61 µM
IC50 (Homo sapiens, ACHN, read-out: IC50 in cell proliferation assay): 0.675 µM
IC50 (Homo sapiens, AN3-CA, read-out: IC50 in cell proliferation assay): 12.7 µM
IC50 (Homo sapiens, AU565, read-out: IC50 in cell proliferation assay): 0.042 µM
IC50 (Homo sapiens, BT-474, read-out: IC50 in cell proliferation assay): 0.028 µM
IC50 (Homo sapiens, BT-549, read-out: IC50 in cell proliferation assay): 17.5 µM
IC50 (Homo sapiens, BXPC-3, read-out: IC50 in cell proliferation assay): 1.41 µM
IC50 (Homo sapiens, C-33-A, read-out: IC50 in cell proliferation assay): 0.046 µM
IC50 (Homo sapiens, CAL-27, read-out: IC50 in cell proliferation assay): 0.374 µM
IC50 (Homo sapiens, CCRF-CEM, read-out: IC50 in cell proliferation assay): 8.44 µM
IC50 (Homo sapiens, DU-145, read-out: IC50 in cell proliferation assay): 0.148 µM
IC50 (Homo sapiens, DU-4475, read-out: IC50 in cell proliferation assay): 20.1 µM
IC50 (Homo sapiens, Daoy, read-out: IC50 in cell proliferation assay): 23.1 µM
IC50 (Homo sapiens, DoTc2-4510, read-out: IC50 in cell proliferation assay): 0.209 µM
IC50 (Homo sapiens, EOL1, read-out: IC50 in cell proliferation assay): 0.347 µM
IC50 (Homo sapiens, FaDu, read-out: IC50 in cell proliferation assay): 0.095 µM
IC50 (Homo sapiens, HCC827, read-out: IC50 in cell proliferation assay): 0.236 µM
IC50 (Homo sapiens, HCT-116, read-out: IC50 in cell proliferation assay): 26.4 µM
IC50 (Homo sapiens, HEC-1B, read-out: IC50 in cell proliferation assay): 0.294 µM
IC50 (Homo sapiens, HL-60, read-out: IC50 in cell proliferation assay): 29.7 µM
IC50 (Homo sapiens, HT, read-out: IC50 in cell proliferation assay): 0.902 µM
IC50 (Homo sapiens, Hs-578T, read-out: IC50 in cell proliferation assay): 15.1 µM
IC50 (Homo sapiens, HuTu80, read-out: IC50 in cell proliferation assay): 3.66 µM
IC50 (Homo sapiens, J82, read-out: IC50 in cell proliferation assay): 25.5 µM
IC50 (Homo sapiens, Jurkat E6.1, read-out: IC50 in cell proliferation assay): 10.8 µM
IC50 (Homo sapiens, K562, read-out: IC50 in cell proliferation assay): 7.32 µM
IC50 (Homo sapiens, KATO III, read-out: IC50 in cell proliferation assay): 1.04 µM
IC50 (Homo sapiens, KG-1, read-out: IC50 in cell proliferation assay): 1.35 µM
IC50 (Homo sapiens, KLE, read-out: IC50 in cell proliferation assay): 0.075 µM
IC50 (Homo sapiens, KMS-11, read-out: IC50 in cell proliferation assay): 27.9 µM
IC50 (Homo sapiens, KU812, read-out: IC50 in cell proliferation assay): 2.81 µM
IC50 [2]: 7.92 µM
IC50 (Homo sapiens, LC-2-ad, read-out: IC50 in cell proliferation assay): 1.83 µM
IC50 (Homo sapiens, LS174T, read-out: IC50 in cell proliferation assay): 11.6 µM
IC50 (Homo sapiens, LS-411N, read-out: IC50 in cell proliferation assay): 23 µM
IC50 [3]: 0.411 µM
IC50 (Homo sapiens, MDA-MB-468, read-out: IC50 in cell proliferation assay): 1.04 µM
IC50 [4]: 0.426 µM
IC50 (Homo sapiens, MOLT-4, read-out: IC50 in cell proliferation assay): 1.88 µM
IC50 [5]: 1.01 µM
IC50 (Homo sapiens, MeWo, read-out: IC50 in cell proliferation assay): 29.1 µM
IC50 (Homo sapiens, NCCIT, read-out: IC50 in cell proliferation assay): 5.1 µM
IC50 (Homo sapiens, NCI-H82, read-out: IC50 in cell proliferation assay): 18.4 µM
IC50 (Homo sapiens, NCI-H661, read-out: IC50 in cell proliferation assay): 0.123 µM
IC50 (Homo sapiens, NCI-H716, read-out: IC50 in cell proliferation assay): 1.3 µM
IC50 (Homo sapiens, NCI-H1650, read-out: IC50 in cell proliferation assay): 0.11 µM
IC50 (Homo sapiens, NCI-H1975, read-out: IC50 in cell proliferation assay): 0.576 µM
IC50 (Homo sapiens, NCI-H2228, read-out: IC50 in cell proliferation assay): 29.9 µM
IC50 (Homo sapiens, OVCAR-3, read-out: IC50 in cell proliferation assay): 0.2 µM
IC50 (Homo sapiens, PFSK-1, read-out: IC50 in cell proliferation assay): 25.6 µM
IC50 (Homo sapiens, RL95-2, read-out: IC50 in cell proliferation assay): 0.032 µM
IC50 (Homo sapiens, RPMI-7951, read-out: IC50 in cell proliferation assay): 26.9 µM
IC50 (Homo sapiens, Rec1, read-out: IC50 in cell proliferation assay): 0.000511 µM
IC50 (Homo sapiens, SK-BR-3, read-out: IC50 in cell proliferation assay): 0.011 µM
IC50 (Homo sapiens, SK-N-MC, read-out: IC50 in cell proliferation assay): 1.52 µM
IC50 [6]: 26.3 µM
IC50 (Homo sapiens, SNU-5, read-out: IC50 in cell proliferation assay): 17.6 µM
IC50 (Homo sapiens, SNU-C2B, read-out: IC50 in cell proliferation assay): 0.3 µM
IC50 (Homo sapiens, SU-DHL-6, read-out: IC50 in cell proliferation assay): 0.012 µM
IC50 (Homo sapiens, SUP-T1, read-out: IC50 in cell proliferation assay): 1.31 µM
IC50 (Homo sapiens, SW48, read-out: IC50 in cell proliferation assay): 0.021 µM
IC50 (Homo sapiens, SW780, read-out: IC50 in cell proliferation assay): 18.7 µM
IC50 (Homo sapiens, T98G, read-out: IC50 in cell proliferation assay): 20.6 µM
IC50 (Homo sapiens, TCC-SUP, read-out: IC50 in cell proliferation assay): 18.1 µM
IC50 (Homo sapiens, U2OS, read-out: IC50 in cell proliferation assay): 10.1 µM
IC50 (Homo sapiens, U-118-MG, read-out: IC50 in cell proliferation assay): 23.3 µM
IC50 (L-82, read-out: IC50 in cell proliferation assay): 17.7 µM
IC50 (Rh30, read-out: IC50 in cell proliferation assay): 25.7 µM

CO[C@@H]1[C@H](N(C)C(=O)c2ccccc2)C[C@H]2O[C@]1(C)n1c3ccccc3c3c4c(c5c6ccccc6n2c5c31)C(=O)NC4 [midostaurin]
IC50 [1]: 0.334 µM
IC50 [2]: 0.32 µM
IC50 [3]: 7.64 µM
IC50 [4]: 0.014 µM
IC50 [5]: 0.015 µM
IC50 [6]: 0.326 µM
